Test results reported in PMC12834961 (Scientific Reports, 2025).

Biological target: epidermal growth factor receptor (EGFR) (Homo sapiens, UniProt P00533)
Test: SPR
Type: binding

epidermal growth factor receptor (EGFR), sequence (P00533 25-1210): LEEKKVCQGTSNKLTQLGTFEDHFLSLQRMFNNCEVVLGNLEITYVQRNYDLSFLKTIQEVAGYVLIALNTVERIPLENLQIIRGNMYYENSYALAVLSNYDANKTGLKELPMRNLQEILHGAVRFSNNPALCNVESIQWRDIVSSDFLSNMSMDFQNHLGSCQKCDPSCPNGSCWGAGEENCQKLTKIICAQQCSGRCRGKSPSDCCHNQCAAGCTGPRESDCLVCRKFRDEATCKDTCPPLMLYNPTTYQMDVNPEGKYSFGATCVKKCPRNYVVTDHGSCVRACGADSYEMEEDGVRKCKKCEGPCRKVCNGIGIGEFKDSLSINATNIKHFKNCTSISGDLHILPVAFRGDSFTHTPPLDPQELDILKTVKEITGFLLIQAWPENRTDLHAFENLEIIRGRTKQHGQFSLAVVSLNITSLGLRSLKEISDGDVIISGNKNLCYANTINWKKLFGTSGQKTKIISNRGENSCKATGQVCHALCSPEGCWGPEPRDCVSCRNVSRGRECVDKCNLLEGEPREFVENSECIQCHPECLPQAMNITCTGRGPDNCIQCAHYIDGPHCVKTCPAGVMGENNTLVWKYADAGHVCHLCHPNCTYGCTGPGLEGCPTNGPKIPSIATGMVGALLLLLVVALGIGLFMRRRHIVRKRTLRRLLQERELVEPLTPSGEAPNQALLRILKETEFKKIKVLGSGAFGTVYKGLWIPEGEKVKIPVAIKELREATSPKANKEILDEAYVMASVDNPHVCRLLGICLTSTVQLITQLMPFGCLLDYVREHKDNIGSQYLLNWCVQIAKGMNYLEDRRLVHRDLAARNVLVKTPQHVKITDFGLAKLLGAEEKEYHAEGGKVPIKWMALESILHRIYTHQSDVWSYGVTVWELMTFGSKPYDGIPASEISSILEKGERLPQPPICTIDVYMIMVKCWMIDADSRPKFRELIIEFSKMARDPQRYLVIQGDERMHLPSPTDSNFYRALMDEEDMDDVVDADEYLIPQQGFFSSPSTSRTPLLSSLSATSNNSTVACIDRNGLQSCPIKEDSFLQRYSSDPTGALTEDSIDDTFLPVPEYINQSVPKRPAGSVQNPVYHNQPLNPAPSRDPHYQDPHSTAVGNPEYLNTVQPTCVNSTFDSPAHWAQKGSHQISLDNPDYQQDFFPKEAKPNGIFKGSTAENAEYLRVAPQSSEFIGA

- Kd: ~56.1 µM
Structure (SMILES): O=c1c(-c2ccc(O[C@@H]3O[C@H](CO)[C@@H](O)[C@H](O)[C@H]3O)cc2)coc2cc(O)cc(O)c12 [Sop, Sophoricoside]
